Assays:
Format in all cases: physicochemical
[1] = In vitro release of salmon calcitonin from microspheres; conditions: in the phosphate buffer, pH 7.4, 37° C.
Method: Twenty mg of PGA-salmon calcitonin microspheres were loaded into a test tube. Ten ml of a 0.1M phosphate buffer, pH 7.4, containing EDTA were added and the tubes transferred to a 37° C. water bath. Nineteen μg salmon calcitonin/mg microspheres were released initially as a burst. This initial release was followed by a fast release of 50% of the total drug in less than two hours. At this point, a slow release followed and 22 μg salmon calcitonin/mg microspheres (22% of total drug) was released in the following 29 hours.

[2] = Molecular interaction of salmon calcitonin with polylactic acid; conditions: for CALCITONIN CONC.: supernatant
Method: (§1) Approximately five mg of calcitonin were quantitatively weighed and placed in each of a series of 5 ml volumetric flasks. Hexafluoroacetone sesquihydrate (HFA) was added dropwise until the calcitonin dissolved completely. A 5% PGA in HFA solution was quantitatively added dropwise to each flask to provide a mass of PGA covering the range of 0 to 26.3 mg. The flasks were agitated for 5 minutes to mix the solution. Each flask was then filled to the 5 ml mark with phosphate buffer (pH 7.3). The addition of buffer precipitated the PGA plus any calcitonin that had bound with the polymer. The resulting mixture was centrifuged and the supernatant was analyzed spectrophotometrically for salmon calcitonin content. 26 mg of PGA (40,000 Mw) removed approximately 4.1 mg (83%) of salmon calcitonin.
The procedure for preparing the polylactic acid (PLA), dl-type having a molecular weight of 50,000, was similar to that used for PGA, except that methylene chloride was substituted for HFA and the calcitonin was suspended rather than dissolved in the methylene chloride. In addition, since methylene chloride and buffer are not miscible, salmon calcitonin was extracted from methylene chloride in buffer. The aqueous phase was separated, centrifuged and the supernatant was analyzed spectrophotometrically for salmon calcitonin.

[3] = Molecular interaction of salmon calcitonin with polyglycolic acid (co-precipitation, supernatant assay); conditions: for CALCITONIN CONC.: supernatant
Method: The present example was intended to quantify chemical and/or physical association between salmon calcitonin and polyglycolic acid (PGA) having a molecular weight of 40,000 Daltons.
as §1

[4] = Molecular interaction of salmon calcitonin with poly(glycolic-Co-lactic acid); conditions: for CALCITONIN CONC.: supernatant
Method: as §1
The procedure of preparing the poly(glycolic-Co-lactic acid) (PGL) having a molecular weight of 50,000 microspheres was similar to that used for PGA, except the hexafluoro-2-propanol was substituted for HFA. Above 8 mg of PGL over 80% of salmon calcitonin was removed.

time salmon calcitonin remains stable [1]: about 35 hours
% CALCITONIN REMOVED ([2]; PLA mass 0.00 mg): 1.03%
CALCITONIN REMOVED ([2]; PLA mass 0.00 mg): 0.055 mg
% CALCITONIN REMOVED ([2]; PLA mass 2.68 mg): 40.8%
CALCITONIN REMOVED ([2]; PLA mass 2.68 mg): 2.04 mg
% CALCITONIN REMOVED ([2]; PLA mass 4.81 mg): 47.2%
CALCITONIN REMOVED ([2]; PLA mass 4.81 mg): 2.36 mg
% CALCITONIN REMOVED ([2]; PLA mass 10.28 mg): 55.4%
CALCITONIN REMOVED ([2]; PLA mass 10.28 mg): 2.77 mg
% CALCITONIN REMOVED ([2]; PLA mass 14.95 mg): 72.4%
CALCITONIN REMOVED ([2]; PLA mass 14.95 mg): 3.62 mg
% CALCITONIN REMOVED ([2]; PLA mass 20.40 mg): 60.3%
CALCITONIN REMOVED ([2]; PLA mass 20.40 mg): 3.02 mg
CALCITONIN CONC. ([2]; PLA mass 0.00 mg): 1.05 mg/mL
CALCITONIN CONC. ([2]; PLA mass 2.68 mg): 0.592 mg/mL
CALCITONIN CONC. ([2]; PLA mass 4.81 mg): 0.488 mg/mL
CALCITONIN CONC. ([2]; PLA mass 10.28 mg): 0.386 mg/mL
CALCITONIN CONC. ([2]; PLA mass 14.95 mg): 0.276 mg/mL
CALCITONIN CONC. ([2]; PLA mass 20.40 mg): 0.417 mg/mL
salmon calcitonin removed ([3]; 26 mg of PGA (40,000 Mw)): approximately 4.1 mg
salmon calcitonin removed (percent) ([3]; 26 mg of PGA (40,000 Mw)): ~83%
% CALCITONIN REMOVED ([3]; PGA mass 0.00 mg): 1.90%
CALCITONIN REMOVED ([3]; PGA mass 0.00 mg): 0.099 mg
% CALCITONIN REMOVED ([3]; PGA mass 5.73 mg): 2.71%
CALCITONIN REMOVED ([3]; PGA mass 5.73 mg): 0.125 mg
% CALCITONIN REMOVED ([3]; PGA mass 7.81 mg): 22.3%
CALCITONIN REMOVED ([3]; PGA mass 7.81 mg): 1.07 mg
% CALCITONIN REMOVED ([3]; PGA mass 7.89 mg): 6.80%
CALCITONIN REMOVED ([3]; PGA mass 7.89 mg): 0.340 mg
% CALCITONIN REMOVED ([3]; PGA mass 10.4 mg): 54.0%
CALCITONIN REMOVED ([3]; PGA mass 10.4 mg): 2.54 mg
% CALCITONIN REMOVED ([3]; PGA mass 11.8 mg): 38.0%
CALCITONIN REMOVED ([3]; PGA mass 11.8 mg): 1.71 mg
% CALCITONIN REMOVED ([3]; PGA mass 13.2 mg): 32.7%
CALCITONIN REMOVED ([3]; PGA mass 13.2 mg): 1.64 mg
% CALCITONIN REMOVED ([3]; PGA mass 14.0 mg): 41.2%
CALCITONIN REMOVED ([3]; PGA mass 14.0 mg): 2.02 mg
% CALCITONIN REMOVED ([3]; PGA mass 15.8 mg): 53.7%
CALCITONIN REMOVED ([3]; PGA mass 15.8 mg): 2.69 mg
% CALCITONIN REMOVED ([3]; PGA mass 18.4 mg): 77.4%
CALCITONIN REMOVED ([3]; PGA mass 18.4 mg): 3.87 mg
% CALCITONIN REMOVED ([3]; PGA mass 21.0 mg): 82.1%
CALCITONIN REMOVED ([3]; PGA mass 21.0 mg): 4.10 mg
% CALCITONIN REMOVED ([3]; PGA mass 22.3 mg): 58.6%
CALCITONIN REMOVED ([3]; PGA mass 22.3 mg): 2.95 mg
% CALCITONIN REMOVED ([3]; PGA mass 23.7 mg): 72.4%
CALCITONIN REMOVED ([3]; PGA mass 23.7 mg): 3.62 mg
% CALCITONIN REMOVED ([3]; PGA mass 26.3 mg): 82.6%
CALCITONIN REMOVED ([3]; PGA mass 26.3 mg): 4.13 mg
CALCITONIN CONC. ([3]; PGA mass 0.00 mg): 1.020 mg/mL
CALCITONIN CONC. ([3]; PGA mass 5.73 mg): 0.895 mg/mL
CALCITONIN CONC. ([3]; PGA mass 7.81 mg): 0.746 mg/mL
CALCITONIN CONC. ([3]; PGA mass 7.89 mg): 0.932 mg/mL
CALCITONIN CONC. ([3]; PGA mass 10.4 mg): 0.432 mg/mL
CALCITONIN CONC. ([3]; PGA mass 11.8 mg): 0.558 mg/mL
CALCITONIN CONC. ([3]; PGA mass 13.2 mg): 0.673 mg/mL
CALCITONIN CONC. ([3]; PGA mass 14.0 mg): 0.576 mg/mL
CALCITONIN CONC. ([3]; PGA mass 15.8 mg): 0.461 mg/mL
CALCITONIN CONC. ([3]; PGA mass 18.4 mg): 0.226 mg/mL
CALCITONIN CONC. ([3]; PGA mass 21.0 mg): 0.175 mg/mL
CALCITONIN CONC. ([3]; PGA mass 22.3 mg): 0.422 mg/mL
CALCITONIN CONC. ([3]; PGA mass 23.7 mg): 0.276 mg/mL
CALCITONIN CONC. ([3]; PGA mass 26.3 mg): 0.174 mg/mL
% CALCITONIN REMOVED ([4]; PGL mass 0.00 mg): 11.1%
CALCITONIN REMOVED ([4]; PGL mass 0.00 mg): 0.591 mg
% CALCITONIN REMOVED ([4]; PGL mass 2.64 mg): 19.9%
CALCITONIN REMOVED ([4]; PGL mass 2.64 mg): 0.995 mg
% CALCITONIN REMOVED ([4]; PGL mass 4.13 mg): 43.9%
CALCITONIN REMOVED ([4]; PGL mass 4.13 mg): 2.15 mg
% CALCITONIN REMOVED ([4]; PGL mass 5.52 mg): 51.8%
CALCITONIN REMOVED ([4]; PGL mass 5.52 mg): 2.69 mg
% CALCITONIN REMOVED ([4]; PGL mass 6.51 mg): 59.8%
CALCITONIN REMOVED ([4]; PGL mass 6.51 mg): 2.87 mg
% CALCITONIN REMOVED ([4]; PGL mass 8.45 mg): 80.8%
CALCITONIN REMOVED ([4]; PGL mass 8.45 mg): 3.64 mg
% CALCITONIN REMOVED ([4]; PGL mass 11.53 mg): 87.5%
CALCITONIN REMOVED ([4]; PGL mass 11.53 mg): 4.37 mg
% CALCITONIN REMOVED ([4]; PGL mass 13.57 mg): 92.5%
CALCITONIN REMOVED ([4]; PGL mass 13.57 mg): 4.44 mg
% CALCITONIN REMOVED ([4]; PGL mass 20.97 mg): 91.6%
CALCITONIN REMOVED ([4]; PGL mass 20.97 mg): 4.95 mg
salmon calcitonin removed (percent) ([4]; above 8 mg of PGL): over 80%
CALCITONIN CONC. ([4]; PGL mass 0.00 mg): 0.941 mg/mL
CALCITONIN CONC. ([4]; PGL mass 2.64 mg): 0.801 mg/mL
CALCITONIN CONC. ([4]; PGL mass 4.13 mg): 0.550 mg/mL
CALCITONIN CONC. ([4]; PGL mass 5.52 mg): 0.501 mg/mL
CALCITONIN CONC. ([4]; PGL mass 6.51 mg): 0.386 mg/mL
CALCITONIN CONC. ([4]; PGL mass 8.45 mg): 0.172 mg/mL
CALCITONIN CONC. ([4]; PGL mass 11.53 mg): 0.125 mg/mL
CALCITONIN CONC. ([4]; PGL mass 13.57 mg): 0.0725 mg/mL
CALCITONIN CONC. ([4]; PGL mass 20.97 mg): 0.0908 mg/mL
Substance: salmon calcitonin

From patent US20020051808A1, “Drug delivery system involving interaction between protein or polypeptide and hydrophobic biodegradable polymer” (priority 1995, published 2002)
